Where a name gives a salt, the structure may show the parent alone.
Experiments:
[1] = tested on: coronary arteries (Langendorff's isolated heart); assay: Langendorff's isolated heart preparation (dilation of coronary arteries)
Method: In addition to their utility in the treatment of hypertension, the compounds of formula (I) are useful in the treatment of the symptoms of angina pectoris by virtue of their ability to dilate coronary arteries. Their activity was measured using the "Langendorff's isolated heart" preparation. This test has been described in "Pharmacological Experiments on Isolated Preparations". Staff of the Department of Pharmacology, University of Edinbourgh, 2nd Ed., Churchill Livingstone, N.Y., 1970, pp. 112-119. The test compounds were administered at concentrations of 30.0, 10.0, 3.0, 1.0, 0.3, 0.1, 0.03, and 0.01 micromolar (10^-6 molar).

[2] = tested on: spontaneously hypertensive rats; assay: Spontaneously Hypertensive Rat (SHR) test, arterial pressure; assay type: in vivo, adult spontaneously hypertensive rats (Charles Rivers); conditions: SH rats, fall of mean arterial pressure
Method: The activity of compounds of formula (I) for the treatment of hypertension was determined using the Spontaneously Hypertensive Rat (SHR) test as described below. In this test, the arterial pressure of adult spontaneously hypertensive rats (Charles Rivers) is monitored directly via an aortic cannula. The SH rats are anesthetized with an inhalation anesthetic (ether). The left carotid artery is isolated and cannulated. The tip of the cannula is advanced to the aorta and the cannula is exteriorized behind the neck at the level of the scapula. Animals are placed in individual cages and allowed to recover from the anesthetic and are kept unrestrained. The arterial cannula is connected to the pressure transducer which is attached to the recorder. The test compounds are administered to at least 3 rats at doses selected in the range of 0.1 to 100 mg/kg of body weight by intraperitoneal (i.p.) or oral (p.o.) routes of administration. The arterial pressure and heart rate are monitored for a minimum of 24 hr. A test compound is considered to be active as an antihypertensive agent if the mean arterial pressure (MAP) indicates a fall of >15 mm of Hg. Each animal serves as its own control.

[3] = tested on: Mongrel dogs; assay: Myocardial Oxygen Supply and Demand (dog) Test; assay type: in vivo; conditions: i.v., anesthetized dog; for increasing coronary blood flow: p<0.05
Method: The activity of compounds of formula (I) in the treatment of angina was also determined using the Myocardial Oxygen Supply and Demand (dog) Test as described below.
Mongrel dogs of either sex weighing between 8.4 and 12.3 kg were used for this study. These dogs were obtained from Haycock Farm, Quakertown, PA. They were anesthetized with pentabarbitol Na and ventilated with a Harvard positive pressure respirator (Model 607 , Dover, MA) to maintain their blood pH and gaseous tension within physiological ranges. Heparin-filled polyethylene catheters were implanted into the right femoral artery (PE-260) and the right atrium (PE-180) for the measurement of their respective pressures. The right femoral vein was cannulated with a heparin-filled polyethylene catheter (PE-200) for drug infusion. A thoracotomy was then performed via the left fifth intercostal space. The left circumflex coronary artery was isolated from surrounding fascia and an electromagnetic flow transducer (I.D.=2.0 mm, Gould Statham Inc. Oxnard, CA) placed around it for the measurement of coronary blood flow. A Delmed intravenous catheter (18.5 ga.×8 in., Canton, MA) was inserted into the coronary sinus via a puncture wound made by an 18 ga. needle for coronary venous effluent blood sampling. Arterial oxygen samples were taken from the femoral arterial catheters. Total content of oxygen in whole blood was measured by the Lex-02-Con-TL (Lexington Instruments Corp., Waltham, MA). Myocardial oxygen consumption was estimated by the product of the difference in arterial and coronary sinus oxygen content and coronary blood flow through the left circumflex coronary artery. These techniques have been used extensively to study the effects of calcium channel blockers on myocardial oxygen supply and demand in various animal models. References for these techniques include Jolly, S. R. and Gross, G. J. Effect of FR 7534, A New Calcium Antagonist, On Myocardial Oxygen Demand. Euro. J. Pharm. 54: 289-293, (1979); Ono, H., Ohara, N. and Hashimoto, K. Effect of an Anti-Anginal Drug, Perhexiline, on Myocardial Oxygen Consumption in Anesthetized Open-Chest Dogs Compared With Verapamil and Glyceryl Trinitrate. Jap. Cir. J. 46: 559-567 (1982); and Vater, W. and Schlossman, K. Effects of Nifedipine on the Hemodynamics and Oxygen Consumption of the Heart in Animal Experiments, in: Jatene and Lichtlen, 3rd International Adalat Symposium: New Therapy of Ischemic Heart Disease (Exerpta Medica, Amsterdam, Oxford), p. 33, (1975). Arterial blood pH and gaseous tension were measured by a Corning pH/blood gas analyzer (Model 168, Medfield, MA). Arterial and atrial pressures were measured by connecting their respective catheters to Statham strain-gauge manometers (P23D, Gould Inc., Oxnard, CA). Gould-Statham electromagnetic blood flowmeters (Model SP2202, Oxnard, CA) were used to measure coronary blood flow. Lead II of the EKG was monitored continuously through subcutaneous insertion of stainless steel needle electrodes on the body surface of the animal. The EKG was recorded by a Grass oscillograph (Model 7D, Quincy, MA) with an EKG-pulse pre-amplifier (Model 7P6C) and a Polygraph D.C. driver amplifier (Model 7DAG). All the other recorded variables, i.e., arterial pressure, right atrial pressure and coronary blood flow were recorded by the Grass oscillograph. Coronary vascular resistance was calculated as the quotient of the difference in mean pressure (arterial-right atrial) and left circumflex blood flow. […]

## CC1(COCC(CN(Cc2ccccc2)c2c(Cl)cccc2Cl)N2CCCC2)CCCCC1.Cl (stereo not drawn) [Example 1e, N-(2,6-Dichlorophenyl)-beta-[[(1-methylcyclohexyl)methoxy]methyl]-N-(phenylmethyl)-1-pyrrolidineethanamine hydrochloride(1:1)]
[1]
  EC30: 4.6 nM
[2]; dose 30 (mg/kg), po
  SHR δMAP: -60 mm of Hg
[3]; 0.25 mg/kg
  decreased arterial pressure: 8%
  increasing coronary blood flow: 80%
[3]; 0.50 mg/kg
  decreased arterial pressure: 15%
  increasing coronary blood flow: 221%
[3]; 0.25 and 0.50 mg/kg
  myocardial oxygen supply/demand ratio: markedly increased

## COc1cccc(N(Cc2ccccc2)CC(COCC(C)(C)C)N2CCCC2)c1.O=C(O)/C=C/C(=O)O (stereo not drawn) [Example 2d, beta-[(2,2-Dimethylpropoxy)methyl]-N-(3-methoxyphenyl)-N-(phenylmethyl)-1-pyrrolidineethanamine (E)-2-Butenedioate (1:1)]
[1]
  EC30: 29 nM
[2]; dose 30 (mg/kg), po
  SHR δMAP: -29 mm of Hg

## CC(C)(C)COCC(CN(Cc1ccccc1)c1ccccc1Cl)N1CCCC1.Cl (stereo not drawn) [Example 3b, N-(2-Chlorophenyl)-beta-[(2,2-dimethylpropoxy)methyl]-N-(phenylmethyl)-1-pyrrolidineethanamine Hydrochloride (1:1)]
[1]
  EC30: 27 nM
[2]; dose 10 (mg/kg), ip
  SHR δMAP: -52 mm of Hg
[2]; dose 30 (mg/kg), po
  SHR δMAP: -6 mm of Hg

## CN(C)c1ccc(CN(CC(COCC(C)(C)C)N2CCCC2)c2c(Cl)cccc2Cl)cc1 (stereo not drawn) [Example 4c, N-(2,6-Dichlorophenyl)-N-[[4-(dimethylamino)phenyl]methyl]beta-[(2,2-dimethylpropoxy)methyl]-1-pyrrolidineethanamine Hydrochloride Hydrate (7:7:1)]
[1]
  EC30: 1.6 nM
[2]; dose 10 (mg/kg), ip
  SHR δMAP: -23 mm of Hg
[2]; dose 30 (mg/kg), po
  SHR δMAP: -14 mm of Hg

## COc1ccc(CN(CC(COCC(C)(C)C)N2CCCC2)c2c(Cl)cccc2Cl)cc1OC.Cl (stereo not drawn) [Example 5, N-(2,6-Dichlorophenyl)-N-[(3,4-dimethoxyphenyl)methyl]-beta-[(2,2-dimethylpropoxy)methyl]-1-pyrrolidineethanamine-Hydrochloride (1:1)]
[1]
  EC30: 1 nM
[2]; dose 30 (mg/kg), po
  SHR δMAP: -15 mm of Hg

## CC(C)(C)COCC(CN(Cc1ccccc1)c1c(Cl)cccc1Cl)N1CCCC1 (stereo not drawn) [Example 6, N-(2,6-Dichlorophenyl)-beta-[(2,2-dimethylpropoxy)methyl]-N-(phenylmethyl)-1-pyrrolidineethanamine Hydrochloride (1:1)]
[1]
  EC30: 7.3 nM
[2]; dose 30 (mg/kg), po
  SHR δMAP: -33 mm of Hg

## CC(C)(C)COCC(CN(Cc1ccncc1)c1c(Cl)cccc1Cl)N1CCCC1.Cl.Cl (stereo not drawn) [Example 7, N-(2,6-Dichlorophenyl)-beta-[(2,2-dimethylpropoxy)methyl]-N-(4-pyridinylmethyl)-1-pyrrolidineethanamine Dihydrochloride]
[1]
  EC30: 28 nM
[2]; dose 30 (mg/kg), po
  SHR δMAP: -37 mm of Hg

## Cc1cccc(C)c1N(Cc1ccccc1)CC(COCC(C)(C)C)N1CCCC1.Cl (stereo not drawn) [Example 8b, N-(2,6-Dimethylphenyl)-beta-[(2,2-dimethylpropoxy)methyl]-N-(phenylmethyl)-1-pyrrolidineethanamine Hydrochloride]
[1]
  EC30: 2.8 nM
[2]; dose 30 (mg/kg), po
  SHR δMAP: -21 mm of Hg

## CC(C)(C)COCC(CN(Cc1ccccc1)c1cccc(C(F)(F)F)c1)N1CCCC1.Cl (stereo not drawn) [Example 9b, beta-[(2,2-Dimethylpropoxy)methyl]-N-(phenylmethyl)-N-[3-(trifluoromethyl)phenyl]-1-pyrrolidineethanamine Hydrochloride]
[1]
  EC30: 20 nM
[2]; dose 30 (mg/kg), po
  SHR δMAP: -28 mm of Hg

## CC(C)(C)COCC(CN(Cc1ccccc1)c1ccccc1)N1CCCC1 (stereo not drawn) [Example 10, β-[(2,2-Dimethylpropoxy)methyl]-N-phenyl-N-(phenylmethyl)-1-pyrrolidineethanamine (E)-2-Butenedioate (1:1)]
[1]
  EC30: 5 nM
[2]; dose 10 (mg/kg), ip
  SHR δMAP: -28 mm of Hg
[2]; dose 30 (mg/kg), po
  SHR δMAP: -13 mm of Hg

## CC(C)(C)COCC(CN(CC1CCCCC1)c1c(Cl)cccc1Cl)N1CCCC1 (stereo not drawn) [Example 12, N-(Cyclohexylmethyl)-N-(2,6-dichlorophenyl)-beta-[(2,2-dimethylpropoxy)methyl]-1-pyrrolidineethanamine (E)-2-Butenedioate Hydrate (20:25:2)]
[1]
  EC30: 3 nM
[2]; dose 30 (mg/kg), po
  SHR δMAP: -25 mm of Hg

## CC(C)(C)OCC(CN(Cc1ccccc1)c1c(Cl)cccc1Cl)N1CCCC1 (stereo not drawn) [Example 13, N-(2,6-Dichlorophenyl)-beta[ (1,1-dimethylethoxy)methyl]-N-(phenylmethyl)-1-pyrrolidineethanamine Hydrochloride (1:1)]
[1]
  EC30: 4.3 nM
[2]; dose 10 (mg/kg), ip
  SHR δMAP: -74 mm of Hg
[2]; dose 30 (mg/kg), po
  SHR δMAP: -20 mm of Hg

## N-(2,6-Dichlorophenyl)-N-(phenylmethyl)-alpha-[[(tricyclo-[3.3.1.1^3,7]dec-1-yl)methoxy]methyl]-1-pyrrolidineethanamine Hydrochloride (1:1) [Example 11c]
[1]
  Langendorff EC30: .010 10^-6 M
[2]; dose 30 (mg/kg), po
  SHR δMAP: -41 mm of Hg

Source: patent US4727072A, “3-alkoxy-2-aminopropylamines compositions and use as cardiovascular agents” (McNeilab, Inc., priority 1986, dated 1988)
